Measured values taken from patent publication US20260364181A1, “AKR1C3 Targeted Heterobifunctional Small Molecule Proteolysis Targeting Chimeras” (BOARD OF REGENTS OF THE UNIVERSITY OF NEBRASKA, priority 2022, published 2026).

How the values were obtained:
Assay type in all cases: cell-based
[1] = tested on: ARv7; experiment: ARv7 protein degradation in 22Rv1 prostate cancer cells (Western blot)
Procedure: (§1) Protein Expression via Western Blot. 22Rv1 cells were seeded in a 6-well plate and incubated overnight. Next day, the cells were treated with varying concentrations of 6 (1 and 10 μM) and 5 (0.5, 1, 10, 50, 100, 250, and 500 nM; 1, 10, and 50 μM) for 24 hours and 5 (1 and 10 nM) at different time points (0, 2, 4, 6, 12, 16, 24, 48, and 72 h). Whole cell lysates were extracted in RIPA lysis buffer containing protease inhibitor and EDTA (Fisher Scientific, PI78440). Protein concentrations in each sample was estimated following BCA assay (Pierce™ BCA protein assay kit, Fisher Scientific, PI23227) as per the manufacturer's protocol. Proteins were standardized using RIPA lysis buffer with Laemelli SDS sample buffer (Thermo Scientific, AAJ61337AC) and heated at 1000C for 15 minutes. The proteins were resolved on a 4-12% premade gel (Invitrogen, NW04120BOX) at 60-90 V in 20× Bolt™ MES SDS running buffer (Fisher Scientific, B000202) and transferred onto a nitrocellulose membrane (Invitrogen, IB23001) using iBlot 2. The membranes were blocked with 2.5% non-fat dry milk (Bio-Rad, 1706404) for 1 h, and the membrane was incubated overnight on a rocking platform at 4 °C with the desired primary antibodies against AKR1C3 (mouse mAb, 1:200, Sigma, A6229), AKR1C1/C2 (rabbit mAb, 1:500, Abcam, ab179448), ARv7 (rabbit mAb, 1:500, Abcam, ab198394) and actin (mouse mAb, 1:1,000, ThermoFisher, MA5-11869). The membranes were washed three times, 10 minutes each, with 1×Tris-buffered saline (TBST, Bio-Rad, 1706435) in 0.1% Tween 20, on a rocking platform wherein they were incubated with rabbit anti-mouse IgG (ThermoFisher, 31450) or goat anti-rabbit IgG (Jackson ImmunoResearch, 111-035-003) secondary antibody (1:1,000) horseradish peroxidase conjugate for 1 hour. […] Bands were quantified by densitometry using ImageJ software and fold change in AKR1C3, AKR1C1/C2, and ARv7 protein expression was determined based on actin controls. […]

[2] = tested on: 22Rv1 prostate cancer cells; experiment: 22Rv1 cell viability (MTS assay); details: 72 h
Procedure: Cell culture and reagents. 22Rv1 cells were purchased from the American Type Culture Collection (ATCC in 2016) and cultured in RPMI 1640 supplemented with 10% Fetal Bovine Serum (FBS, Fisher Scientific, MT35011CV) and Penicillin-Streptomycin Solution (1%, Fisher Scientific, MT30001Cl) at 37 °C in a humidified incubator with 5% carbon dioxide atmosphere. Stock solutions of E3 ligase ligand, lenalidomide 6 (10 mM), PROTAC 5 (25 mM), and AKR1C3 inhibitor 3 (100 mM) were prepared in DMSO.
Cell viability assay. Cells were seeded at a density of 10,000 cells/well in a 96-well plate containing 100 μL growth media per well and were incubated at 37 °C in a humidified incubator with 5% carbon dioxide over ~18-24 hours. Cells were treated with 6, 5, and 3 serially diluted at the indicated concentrations limiting the final DMSO concentration to less than 0.1% and incubated at 37 °C for 72 hours. 10 μL of MTS reagent (CellTiter96®Aqueous One Solution Reagent, Promega, G3580) was added to each well and incubated at the above-mentioned conditions for 4 hours. Absorbance was recorded at OD 490 nm on a Synergy LX multi-mode reader and the viability of cells were plotted as percentage of DMSO control.

[3] = target: T1, AKR1C3 (Homo sapiens, UniProt P42330); experiment: AKR1C3 protein degradation in 22Rv1 prostate cancer cells (Western blot); set-up: 22Rv1 prostate cancer cells that express high levels of AKR1C3; host or cells: 22Rv1; details: read-out: AKR1C3 DC50 (half-maximal degradation concentration); 72 hours
T1 sequence (P42330 1-323): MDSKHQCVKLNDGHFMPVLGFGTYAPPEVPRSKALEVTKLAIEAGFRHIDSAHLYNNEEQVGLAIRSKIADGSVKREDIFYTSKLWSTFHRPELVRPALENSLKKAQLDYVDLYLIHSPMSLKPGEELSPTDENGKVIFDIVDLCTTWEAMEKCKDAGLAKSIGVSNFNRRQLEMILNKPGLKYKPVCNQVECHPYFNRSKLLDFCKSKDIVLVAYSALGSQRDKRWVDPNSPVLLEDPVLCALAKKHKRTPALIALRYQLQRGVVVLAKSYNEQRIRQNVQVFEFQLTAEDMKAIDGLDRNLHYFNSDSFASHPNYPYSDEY

[4] = tested on: AKR1C1/C2; experiment: AKR1C1/C2 protein degradation in 22Rv1 prostate cancer cells (Western blot)
Procedure: as §1

DC50 ([1]; 72 hours, read-out: ARv7 DC50 (half-maximal degradation concentration)): 70 nM
IC50 ([2]; Homo sapiens, 22Rv1, MTS, mean±standard deviation of two independent experiments): 49300 ± 1400 nM
DC50 [3]: 52 nM
DC50 ([4]; 72 hours, read-out: AKR1C1/C2 DC50 (half-maximal degradation concentration)): 49 nM
Compound: O=C(O)/C=C/c1cc(C(=O)NCc2ccc(OCc3cn(CCOCCOCC(=O)Nc4cccc5c4CN(C4CCC(=O)NC4=O)C5=O)nn3)cc2)cc(-c2ccccc2)c1 (stereo not drawn) [Compound IA, (E)-3-(5-((4-((1-(2-(2-(2-((2-(2,6-dioxopiperidin-3-yl)-1-oxoisoindolin-4-yl)amino)-2-oxoethoxy)ethoxy)ethyl)-1H-1,2,3-triazol-4-yl)methoxy)benzyl)carbamoyl)-[1,1 ? biphenyl]-3-yl)acrylic acid]
ARv7 expression after proteasome inhibitor pretreatment ([1]; 10 nM, 2 hour pretreatment with MG132 (3 μM), in words): not affected
ARv7 expression ([1]; 10 nM, 72 hours, in words): almost complete amelioration of ARv7 expression
22Rv1 cell viability activity in words [2]: equipotent
degradation of AKR1C1/C2 compared with AKR1C3 ([4]; 10 nM, in words): to a lesser extent than AKR1C3
degradation of AKR1C1/C2 (in words) ([4]; 10 nM, time-dependent): trend of degradation of AKR1C1/C2 in a time-dependent manner
